Measurements from ChEMBL document CHEMBL3885881, “DrugMatrix”.

Organism: Rattus norvegicus
Assay: DrugMatrix - Regimen: Daily Repeat
Assay type: toxicity, organism-based, Sprague-Dawley
Set-up: regimen Daily Repeat, gender Male, age 6-8 weeks
Conditions: in vivo, iv, vehicle 100 % SALINE; for ABSOLUTE BASOPHIL / ABSOLUTE EOSINOPHIL / ABSOLUTE LYMPHOCYTE / ABSOLUTE MONOCYTE / ABSOLUTE SEGMENTED NEUTROPHIL / BASOPHIL / EOSINOPHIL / ERYTHROCYTE COUNT / HEMATOCRIT / HEMOGLOBIN / LEUKOCYTE COUNT / LYMPHOCYTE / MEAN CORPUSCULAR HEMOGLOBIN / MEAN CORPUSCULAR HEMOGLOBIN CONCENTRATION / MEAN CORPUSCULAR VOLUME / MONOCYTE / NEUTROPHIL / NUCLEATED RED BLOOD CELLS / PLATELET COUNT: tissue Blood; for ALANINE AMINOTRANSFERASE / ALBUMIN / ALKALINE PHOSPHATASE / ASPARTATE AMINOTRANSFERASE / BLOOD UREA NITROGEN / CARBON DIOXIDE / CHLORIDE / CHOLESTEROL / CREATINE PHOSPHOKINASE / CREATININE / GLUCOSE / LACTATE DEHYDROGENASE / LIPASE / PHOSPHORUS / POTASSIUM / SODIUM / TOTAL BILIRUBIN / TOTAL PROTEIN / URIC ACID: tissue Plasma
[1] = 0 mg/kg, 72 h, dose level Control, time 3 day
[2] = 0 mg/kg, 120 h, dose level Control, time 5 day
[3] = […], 72 h, dose 0.0033 mg/Kg, dose level Low, time 3 day
[4] = […], 72 h, dose 0.033 mg/Kg, dose level High, time 3 day

COc1cc2c3cc1Oc1cc(ccc1O)C[C@@H]1c4c(cc(OC)c(O)c4Oc4ccc(cc4)C[C@@H]3N(C)CC2)CC[N+]1(C)C.[Cl-]
ABSOLUTE BASOPHIL [1]: 0 CELLS/uL | ABSOLUTE EOSINOPHIL [1]: 0 CELLS/uL | ABSOLUTE LYMPHOCYTE [1]: 11636.83 CELLS/uL | ABSOLUTE MONOCYTE [1]: 159 CELLS/uL | ABSOLUTE SEGMENTED NEUTROPHIL [1]: 1170.83 CELLS/uL | BASOPHIL [1]: 0% | EOSINOPHIL [1]: 0% | ERYTHROCYTE COUNT [1]: 5.46 x10E6/uL | HEMATOCRIT [1]: 34.05% | HEMOGLOBIN [1]: 13.58 G/DL | LEUKOCYTE COUNT [1]: 12.97 x10E3/uL | LYMPHOCYTE [1]: 89.67% | MEAN CORPUSCULAR HEMOGLOBIN [1]: 24.87 pg | MEAN CORPUSCULAR HEMOGLOBIN CONCENTRATION [1]: 39.9 G/DL | MEAN CORPUSCULAR VOLUME [1]: 62.3 fL | MONOCYTE [1]: 1.33% | NEUTROPHIL [1]: 9% | NUCLEATED RED BLOOD CELLS [1]: 0.17 /100WBC | PLATELET COUNT [1]: 824 x10E3/uL | ALANINE AMINOTRANSFERASE [1]: 64.83 u/L | ALBUMIN [1]: 4.08 G/DL | ALKALINE PHOSPHATASE [1]: 421 u/L | ASPARTATE AMINOTRANSFERASE [1]: 116.83 u/L | BLOOD UREA NITROGEN [1]: 16.83 mg/dL | CARBON DIOXIDE [1]: 28 mmol/L | CHLORIDE [1]: 101.33 MEQ/L | CHOLESTEROL [1]: 74.17 mg/dL | CREATINE PHOSPHOKINASE [1]: 748.5 u/L | CREATININE [1]: 0.22 mg/dL | GLUCOSE [1]: 152.83 mg/dL | LACTATE DEHYDROGENASE [1]: 578.5 u/L | LIPASE [1]: 9.83 u/L | PHOSPHORUS [1]: 11.63 mg/dL | POTASSIUM [1]: 5.93 MEQ/L | SODIUM [1]: 142.1 MEQ/L | TOTAL BILIRUBIN [1]: 0.17 mg/dL | TOTAL PROTEIN [1]: 5.77 G/DL | URIC ACID [1]: 1.43 mg/dL | ABSOLUTE BASOPHIL [2]: 0 CELLS/uL | ABSOLUTE EOSINOPHIL [2]: 159.17 CELLS/uL | ABSOLUTE LYMPHOCYTE [2]: 12267.5 CELLS/uL | ABSOLUTE MONOCYTE [2]: 30 CELLS/uL | ABSOLUTE SEGMENTED NEUTROPHIL [2]: 1160 CELLS/uL | BASOPHIL [2]: 0% | EOSINOPHIL [2]: 1.17% | ERYTHROCYTE COUNT [2]: 5.52 x10E6/uL | HEMATOCRIT [2]: 34.3% | HEMOGLOBIN [2]: 13.73 G/DL | LEUKOCYTE COUNT [2]: 13.62 x10E3/uL | LYMPHOCYTE [2]: 90.5% | MEAN CORPUSCULAR HEMOGLOBIN [2]: 24.92 pg | MEAN CORPUSCULAR HEMOGLOBIN CONCENTRATION [2]: 40.07 G/DL | MEAN CORPUSCULAR VOLUME [2]: 62.17 fL | MONOCYTE [2]: 0.17% | NEUTROPHIL [2]: 8.17% | NUCLEATED RED BLOOD CELLS [2]: 0.17 /100WBC | PLATELET COUNT [2]: 1261.83 x10E3/uL | ALANINE AMINOTRANSFERASE [2]: 58.67 u/L | ALBUMIN [2]: 4.15 G/DL | ALKALINE PHOSPHATASE [2]: 364.67 u/L | ASPARTATE AMINOTRANSFERASE [2]: 105.33 u/L | BLOOD UREA NITROGEN [2]: 17.67 mg/dL | CARBON DIOXIDE [2]: 26.5 mmol/L | CHLORIDE [2]: 101.67 MEQ/L | CHOLESTEROL [2]: 63 mg/dL | CREATINE PHOSPHOKINASE [2]: 480.67 u/L | CREATININE [2]: 0.17 mg/dL | GLUCOSE [2]: 144.67 mg/dL | LACTATE DEHYDROGENASE [2]: 540.33 u/L | LIPASE [2]: 10.33 u/L | PHOSPHORUS [2]: 11.52 mg/dL | POTASSIUM [2]: 6.12 MEQ/L | SODIUM [2]: 142.45 MEQ/L | TOTAL BILIRUBIN [2]: 0.18 mg/dL | TOTAL PROTEIN [2]: 5.73 G/DL | URIC ACID [2]: 1.48 mg/dL | ABSOLUTE BASOPHIL [3]: 0 CELLS/uL | ABSOLUTE EOSINOPHIL [3]: 38.67 CELLS/uL | ABSOLUTE LYMPHOCYTE [3]: 9113.67 CELLS/uL | ABSOLUTE MONOCYTE [3]: 101 CELLS/uL | ABSOLUTE SEGMENTED NEUTROPHIL [3]: 846.67 CELLS/uL | BASOPHIL [3]: 0% | EOSINOPHIL [3]: 0.33% | ERYTHROCYTE COUNT [3]: 5.25 x10E6/uL | HEMATOCRIT [3]: 31.97% | HEMOGLOBIN [3]: 12.93 G/DL | LEUKOCYTE COUNT [3]: 10.1 x10E3/uL | LYMPHOCYTE [3]: 90.33% | MEAN CORPUSCULAR HEMOGLOBIN [3]: 24.73 pg | MEAN CORPUSCULAR HEMOGLOBIN CONCENTRATION [3]: 40.53 G/DL | MEAN CORPUSCULAR VOLUME [3]: 60.97 fL | MONOCYTE [3]: 1% | NEUTROPHIL [3]: 8.33% | NUCLEATED RED BLOOD CELLS [3]: 0 /100WBC | PLATELET COUNT [3]: 798.67 x10E3/uL | ABSOLUTE BASOPHIL [4]: 0 CELLS/uL | ABSOLUTE EOSINOPHIL [4]: 61.33 CELLS/uL | ABSOLUTE LYMPHOCYTE [4]: 18023 CELLS/uL | ABSOLUTE MONOCYTE [4]: 62 CELLS/uL | ABSOLUTE SEGMENTED NEUTROPHIL [4]: 687 CELLS/uL | BASOPHIL [4]: 0% | EOSINOPHIL [4]: 0.33% | ERYTHROCYTE COUNT [4]: 5 x10E6/uL | HEMATOCRIT [4]: 31.67% | HEMOGLOBIN [4]: 13 G/DL | LEUKOCYTE COUNT [4]: 18.83 x10E3/uL | LYMPHOCYTE [4]: 95.67% | MEAN CORPUSCULAR HEMOGLOBIN [4]: 26 pg | MEAN CORPUSCULAR HEMOGLOBIN CONCENTRATION [4]: 41.03 G/DL | MEAN CORPUSCULAR VOLUME [4]: 63.33 fL | MONOCYTE [4]: 0.33% | NEUTROPHIL [4]: 3.67% | NUCLEATED RED BLOOD CELLS [4]: 0 /100WBC | PLATELET COUNT [4]: 1148.67 x10E3/uL
